Results on two compounds are retold here after PMC12010950, “Discover the Power of Lithospermic Acid as Human Carbonic Anhydrase VA and Pancreatic Lipase Inhibitor Through In Silico and In Vitro Studies” (Archiv Der Pharmazie, 2025).

Each structure is given as a SMILES string. Where “and” joins values, the source holds several entries; their conditions need not be identical. Identical values can stand only once. Entries after “also recorded” stand apart in the source; their conditions may differ. Like-named read-outs stand apart in the source and are kept apart here. Some results are limits rather than exact numbers.

Assay [1] addresses T1, PL (pancreatic lipase) from porcine pancreas (Sus scrofa, UniProt P00591).
T1 sequence (P00591 1-450): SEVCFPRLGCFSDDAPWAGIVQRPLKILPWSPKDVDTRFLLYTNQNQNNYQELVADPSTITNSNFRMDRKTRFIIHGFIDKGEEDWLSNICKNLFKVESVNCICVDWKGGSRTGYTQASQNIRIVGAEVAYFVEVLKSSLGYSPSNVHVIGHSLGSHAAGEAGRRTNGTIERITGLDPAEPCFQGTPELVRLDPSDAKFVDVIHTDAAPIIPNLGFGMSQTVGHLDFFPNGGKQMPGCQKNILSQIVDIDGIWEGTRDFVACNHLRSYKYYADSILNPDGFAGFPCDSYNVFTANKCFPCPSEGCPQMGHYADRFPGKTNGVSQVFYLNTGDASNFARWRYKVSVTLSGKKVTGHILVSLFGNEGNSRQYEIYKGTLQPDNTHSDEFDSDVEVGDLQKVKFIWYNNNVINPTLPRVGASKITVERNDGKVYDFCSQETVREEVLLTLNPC
Nature of the assay: Kinetics of PL inhibition (Lineweaver-Burk plots). It counts as biochemical. Here is the method:
The inhibition of PL by LTS0059529 on PL was also determined using Lineweaver–Burk graphs, which plot the reciprocal of initial velocity (v 0 ) against the reciprocal of substrate concentration.
The mode of inhibition of PL in the presence of LTS0059529 was determined by elaboration of UV‐vis spectroscopic data with Lineweaver–Burk plots. […] The competitive inhibition constants K i was calculated from the following equation. (2) v0=vmaxS/Km1+I/Ki+S, where ν 0 is the initial velocity in the absence and presence of the inhibitor, S and I are the concentrations of substrate and inhibitor, respectively; ν max is the maximum velocity, K m is the Michaelis–Menten constant. The replot of slopes (K m/ν max) from Lineweaver–Burk plot versus the inhibitor concentration afforded K i value as well.

The next assay deals with T2, hCA IX (Homo sapiens, UniProt Q16790).
T2 construct: made in house
The assay is classed as biochemical. As to conditions: read-out: K i hCA IX. The procedure:
(§1) An Applied Photophysics stopped‐flow instrument was used to assay the CA‐catalyzed CO2 hydration activity. […] The uncatalyzed rates were determined in the same manner and subtracted from the total observed rates. Stock solutions of the inhibitor (0.1 mM) were prepared in distilled−deionized water, and dilutions up to 0.01 nM were done thereafter with the assay buffer. Inhibitor and enzyme solutions were preincubated together for 15 min at room temperature before the assay, to allow for the formation of the E − I complex. The inhibition constants were obtained by nonlinear least‐squares methods using PRISM 3 and the Cheng–Prusoff equation as reported earlier and represent the mean from at least three different determinations. All CA isoforms were recombinant proteins obtained in house, as reported earlier.

In assay [2] the target is T1, PL (pancreatic lipase) from porcine pancreas. Nature of the assay: Pancreatic lipase inhibition, spectrophotometric p-nitrophenyl butyrate assay. The note with it: IC50 (µM) ± SD, p-nitrophenyl butyrate substrate, 37°C.
Experimental: The inhibition of PL (from porcine pancreas; see Supporting Information) was assessed using previously described spectrophotometric methods [15, 16, 30]. […] Thus, a lower value indicates higher inhibitory activity.
The reactions were incubated at 37°C for 10 min. Then, the substrate p‐nitrophenyl butyrate (3.2 mM in H2O/DMF 70:30, 10 μL) was pipetted, and the microplate was incubated at 37°C for 30 min under moderate shaking.
The target in a further assay is T3, hCA II (Homo sapiens, UniProt P00918).
T3 construct: made in house
Kind of assay: Stopped-flow CO2 hydrase assay. It counts as biochemical. As to conditions: mean from 3 assays, read-out: K i hCA II. Here is the method:
as §1

The target in the next assay is T4, hCA VA (Homo sapiens, UniProt P35218).
T4 construct: made in house
Nature of the assay: Stopped-flow CO2 hydrase assay. It counts as biochemical. As to conditions: mean from 3 assays, read-out: K i hCA VA. The procedure:
as §1

The target in a further assay is T5, hCA I (Homo sapiens, UniProt P00915).
T5 construct: made in house
Kind of assay: Stopped-flow CO2 hydrase assay. The assay is classed as biochemical. As to conditions: mean from 3 assays, read-out: K i hCA I. The procedure:
as §1

The target of the next assay is T6, hCA XII (Homo sapiens, UniProt O43570).
T6 construct: made in house
Kind of assay: Stopped-flow CO2 hydrase assay. The assay is classed as biochemical. As to conditions: mean from 3 assays, read-out: K i hCA XII. Here is the method: as §1

The next assay has as its system hCA VB. Nature of the assay: Stopped-flow CO2 hydrase assay. It counts as biochemical, human. The note with it: K i VA / K i VB. Here is the method: as §1
The target in another assay is T7, hCA VII (Homo sapiens, UniProt Q9Y2D0).
T7 construct: made in house
Nature of the assay: Stopped-flow CO2 hydrase assay (supplement table column). The assay is classed as biochemical. The procedure: An Applied Photophysics stopped‐flow instrument was used to assay the CA‐catalyzed CO2 hydration activity. Phenol red (at a concentration of 0.2 mM) was used as an indicator, working at the absorbance maximum of 557 nm, with 20 mM Hepes (pH 7.4) as a buffer, and 20 mM Na2SO4 (to maintain constant ionic strength), following the initial rates of the CA‐catalyzed CO2 hydration reaction for a period of 10 − 100 s. The CO2 concentrations ranged from 1.7 to 17 mM for the determination of the kinetic parameters and inhibition constants. Enzyme concentrations ranged between 5 and 12 nM. For each inhibitor, at least six traces of the initial 5%−10% of the reaction were used to determine the initial velocity. The uncatalyzed rates were determined in the same manner and subtracted from the total observed rates. Stock solutions of the inhibitor (0.1 mM) were prepared in distilled−deionized water, and dilutions up to 0.01 nM were done thereafter with the assay buffer. Inhibitor and enzyme solutions were preincubated together for 15 min at room temperature before the assay, to allow for the formation of the E − I complex. The inhibition constants were obtained by nonlinear least‐squares methods using PRISM 3 and the Cheng–Prusoff equation as reported earlier and represent the mean from at least three different determinations. […]

For assay [3], the target named is T1, PL (pancreatic lipase) from porcine pancreas. As to conditions: cited from earlier work.

For orientation: IC50 means the concentration needed to halve the response being measured. Low readings indicate greater potency, high ones weaker potency.

T5 sequence (P00915 whole entry): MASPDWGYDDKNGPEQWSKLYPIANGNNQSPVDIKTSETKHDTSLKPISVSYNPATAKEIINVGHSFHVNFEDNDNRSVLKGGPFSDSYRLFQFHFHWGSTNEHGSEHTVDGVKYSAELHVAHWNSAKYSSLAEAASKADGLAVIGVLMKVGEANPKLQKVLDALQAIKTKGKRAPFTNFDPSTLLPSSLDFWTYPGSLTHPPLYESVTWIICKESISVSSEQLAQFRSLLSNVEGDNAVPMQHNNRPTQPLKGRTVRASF
T7 sequence (Q9Y2D0 34-317): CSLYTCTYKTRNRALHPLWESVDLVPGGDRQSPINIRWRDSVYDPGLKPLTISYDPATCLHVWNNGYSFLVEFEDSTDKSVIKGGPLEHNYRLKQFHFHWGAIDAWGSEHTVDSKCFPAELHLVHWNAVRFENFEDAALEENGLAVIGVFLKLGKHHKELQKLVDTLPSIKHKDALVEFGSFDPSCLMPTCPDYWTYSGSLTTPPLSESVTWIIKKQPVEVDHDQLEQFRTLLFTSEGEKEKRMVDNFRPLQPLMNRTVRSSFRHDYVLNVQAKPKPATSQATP
T6 sequence (O43570 25-354): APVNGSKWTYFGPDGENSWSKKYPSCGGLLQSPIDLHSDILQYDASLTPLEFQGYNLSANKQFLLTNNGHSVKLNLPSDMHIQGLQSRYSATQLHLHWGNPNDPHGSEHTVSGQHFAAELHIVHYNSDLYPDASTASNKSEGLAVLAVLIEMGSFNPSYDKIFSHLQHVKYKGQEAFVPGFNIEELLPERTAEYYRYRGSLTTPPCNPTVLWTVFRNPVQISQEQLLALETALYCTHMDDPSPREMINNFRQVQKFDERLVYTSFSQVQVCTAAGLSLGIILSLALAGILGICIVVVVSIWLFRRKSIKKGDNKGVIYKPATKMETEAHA
T4 sequence (P35218 39-305): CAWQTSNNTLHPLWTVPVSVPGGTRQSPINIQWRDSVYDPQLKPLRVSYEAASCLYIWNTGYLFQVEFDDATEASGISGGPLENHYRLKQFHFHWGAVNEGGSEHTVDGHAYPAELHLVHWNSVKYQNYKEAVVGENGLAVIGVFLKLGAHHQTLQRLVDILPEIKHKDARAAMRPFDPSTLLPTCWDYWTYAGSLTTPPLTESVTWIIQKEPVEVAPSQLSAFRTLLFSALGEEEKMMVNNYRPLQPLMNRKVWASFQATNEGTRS

On to `O=C(/C=C/c1ccc(O)c2c1[C@H](C(=O)O)[C@@H](c1ccc(O)c(O)c1)O2)O[C@H](Cc1ccc(O)c(O)c1)C(=O)O` [LTS0059529, Lithospermic acid], for which the Inhibition mode entry in assay [1] (Lineweaver-Burk plot) is “competitively; also recorded: Competitive”. Further, the Ki is 33.1 ± 1.6 µM in [1] (from slope of L-B plot lines versus inhibitor concentration); 0.31 ± 0.01 µM at hCA IX; more than 100 µM on hCA II; 0.69 ± 0.01 µM on hCA VA; more than 100 µM on hCA I; 0.0048 ± 0.003 µM at hCA XII. The compound further came in with a Ki at hCA VII of 0.6 ± 0.02 µM. Besides, the “v max of the reaction” value in [1] (not affected by the competitive inhibitor) is 0.091 ± 0.002 mM/min. Further, the IC50 in assay [2] was 5.4 µM and 5.45 µM. Further, in the assay on hCA VB, the “Inhibition ratio hCA VA versus hCA VB (VB more potently inhibited)” value is on record as 1.15 fold.
Consider `CCCCCCCCCCC[C@@H](C[C@@H]1OC(=O)[C@H]1CCCCCC)OC(=O)[C@H](CC(C)C)NC=O` [ORL, Orlistat], for which the Inhibition mode result in [3] is recorded as “Competitive”.
